The numbers were not newly measured in US20200246404A1, “FORMULATIONS” (Molecular Infusions, LLC, priority 2017, published 2020), which cites them from elsewhere.

In one data set the test system is encephalitogenic T cells. Particulars: encephalitogenic T cells after in vivo application to rats.
A further data set deals with human PBMCs. The conditions noted are these: human PBMCs in vitro.

`CCOC(=O)C(C)=O` [Ethyl pyruvate]: the “release of IFN-γ and IL-17” value in the data set on encephalitogenic T cells and in the data set on human PBMCs was “efficiently suppressed” in each case.
As for `CCCCCc1cc(O)c2c(c1)OC(C)(C)[C@@H]1CCC(C)=C[C@@H]21` [dronabinol, Synthetic Δ9-tetrahydrocannabinol], the “duration of action for psychoactive effects” value (in vivo) was 4 to 6 h. The “administered dose that reaches the systemic circulation” value (oral) is 10 to 20%.
